Laboratory results reported in patent US7550599B2, “Water compatible sterically hindered alkoxyamines and hydroxy substituted alkoxyamines” (Ciba Specialty Chemicals Corporation, priority 2003, dated 2009).

Tests used:
[1] = Dye fading of shampoo under fluorescent light, Example 48; conditions: Suave shampoo; fluorescent light aging, ambient temperature; loading 0.30 wt %
Description: (§1) The instant compounds are added to a commercial shampoo formulation and are evaluated for their ability to reduce the amount of dye fading when the samples are exposed to fluorescent lighting. The instant compounds (0.36 g) are dissolved in 5 mL of methanol which is then added to 120 g of shampoo (Suave^R Natural^R, Fresh Mountain Strawberry) with agitation. A benzotriazole UV absorber, 2-(2-hydroxy-3-tert-butyl-5-methylphenyl)-2H-benzotriazole-5-sulfonic acid, sodium salt (UVA), is optionally added to the shampoo formulation at an equivalent concentration. The stabilized shampoo formulation is agitated for 15 minutes and put into 20 mL glass scintillation vials. These formulations are weathered under fluorescent light aging at ambient temperature. The CIEL*a*b coordinates before and after exposure are measured using X-Rite 938 Spectrodensitometer. Color change is expressed as Delta E (DE).

[2] = Dye fading of mouthwash under fluorescent light, Example 50; conditions: Scope Original Mint mouthwash; fluorescent light aging; loading 0.30 wt %
Description: as §1, with “mouthwash” for “shampoo”, “mouthwash (Scope^R Original Mint)” for “shampoo (Suave^R Natural^R, Fresh Mountain Strawberry)”, “mouthwash formulation.” for “shampoo formulation at an equivalent concentration.”

[3] = Solubility in 50% butyl cellusolve / 50% water; type: physicochemical; conditions: 50% butyl cellusolve / 50% water by weight; stirred 30 minutes
Description: The solubility of the instant compounds is evaluated in polar solvent systems. A solution of 50% butyl cellusolve by weight and 50% water by weight is prepared. The instant compounds are added to this solution stirred for 30 minutes, and sampled for analysis. Samples containing bis(1-octyloxy-2,2,6,6-tetramethylpiperidin-4-yl)sebacate and 4-hydroxy-1-(2-hydroxy-2-methylpropoxy)-2,2,6,6-tetramethylpiperidine are filtered to remove any undissolved residue and all samples are analyzed by high pressure liquid chromatography or gas chromatography.

[4] = Dye fading of shampoo under fluorescent light, Example 49; conditions: Clairol Herbal Essences shampoo; fluorescent light aging; loading 0.30 wt %
Description: as §1, with “(Clairol^R Herbal Essences Shampoo)” for “(Suave^R Natural^R, Fresh Mountain Strawberry)”, “formulation.” for “formulation at an equivalent concentration.”

[5] = Solubility in 50% butyl carbitol / 50% water; type: physicochemical; conditions: 50% butyl carbitol / 50% water by weight; stirred 30 minutes
Description: The solubility of the instant compounds is evaluated in polar solvent systems. A solution of 50% butyl carbitol by weight and 50% water by weight is prepared. The instant compounds are added to this solution, stirred for 30 minutes, and sampled for analysis. Samples containing bis(1-octyloxy-2,2,6,6-tetramethylpiperidin-4-yl)sebacate and 4-hydroxy-1-(2-hydroxy-2-methylpropoxy)-2,2,6,6-tetramethylpiperidine are filtered to remove any undissolved residue and all samples are analyzed by high pressure liquid chromatography or gas chromatography.

[6] = Ink jet media light fastness, cyan, Example 38; conditions: 100% print density; office fluorescent lighting; total stabilizer 650-700 mg/m2, mixtures 1:1 by weight
Description: (§2) A resin-coated paper impregnated with inorganic adsorbent particles (Konica QP Photoglossy ink jet paper, Konica Corp.) is purchased. On the ink-receiving layer, a 0.8 wt % methanol solution of the instant compounds is applied in an amount to achieve 650-700 mg/m^2. The paper is allowed to dry under ambient temperature and pressure for 24 hours. Separately, test patterns (cyan and yellow) are printed on the treated sheets using a Hewlett Packard DeskJet 970 Cxi printer at 100% print density. The obtained prints are left to dry at ambient temperature and pressure for 24 hours. Color densities and CIEL*a*b coordinates before and after exposure are measured using X-Rite 938 Spectrodensitometer. Exposures are carried out using normal office fluorescent lighting.

[7] = Ink jet media light fastness, yellow, Example 38; conditions: 100% print density; office fluorescent lighting; total stabilizer 650-700 mg/m2, mixtures 1:1 by weight
Description: as §2

[8] = Ink jet media light fastness, cyan, Example 34; conditions: 50% print density, office fluorescent lighting
Description: as §2, with “mg/m^2, unless otherwise stated.” for “mg/m^2.”, “(cyan)” for “(cyan and yellow)”, “50%” for “100%”

[9] = Ink jet media light fastness, magenta, Example 32; conditions: 100% print density, office fluorescent lighting
Description: as §2, with “mg/m^2, unless otherwise stated.” for “mg/m^2.”, “(magenta)” for “(cyan and yellow)”

[10] = Ink jet media light fastness, yellow, Example 33; conditions: 50% print density as printed, office fluorescent lighting, 650-700 mg/m2
Description: as §2, with “mg/m^2, unless stated otherwise.” for “mg/m^2.”, “(yellow)” for “(cyan and yellow)”, “50%” for “100%”

[11] = Ink jet media light fastness, cyan, Example 31; conditions: 100% print density, office fluorescent lighting
Description: as §2, with “mg/m^2, unless otherwise stated.” for “mg/m^2.”, “(cyan)” for “(cyan and yellow)”

[12] = Ink jet media light fastness, yellow, Example 36; conditions: 50% print density, office fluorescent lighting, 650-700 mg/m2
Description: as §2, with “mg/m^2, unless stated otherwise.” for “mg/m^2.”, “(yellow)” for “(cyan and yellow)”, “50%” for “100%”

[13] = Ink jet media light fastness, magenta, Example 35; conditions: 50% print density, office fluorescent lighting
Description: as §2, with “mg/m^2, unless otherwise stated.” for “mg/m^2.”, “(magenta)” for “(cyan and yellow)”, “50%” for “100%”

CN(C)CCNC1CC(C)(C)N(OCC(C)(C)O)C(C)(C)C1 [Example 6]
DE after 2 weeks [1]: 7.53

CC(C)(O)CON1C(C)(C)CC(OC(=O)C(C)(C)O)CC1(C)C [Example 18]
DE after 2 weeks [2]: 5.11

CC(NC1CC(C)(C)N(OCC(C)(C)O)C(C)(C)C1)C(=O)[O-].[K+] (centres unmarked) [Example 5]
Solubility (% by weight) [3]: ≧18 % by weight
DE after 2 weeks [4]: 1.55
Solubility (% by weight) [5]: ≧15 % by weight

CC(C)(O)CON1C(C)(C)CC(OC(=O)CCC(=O)O)CC1(C)C [Example 17]
DE after 2 weeks [1]: 8.91

CC(=O)NCC(=O)NC1CC(C)(C)N(OCC(C)(C)O)C(C)(C)C1 [Example 37]
DE for cyan after 3 months [6]: 11.39
DE for yellow after 3 months [7]: 2.96

CC(C)(O)CON1C(C)(C)CC(NCCO)CC1(C)C.Cl [Example 22]
DE for cyan after 4 weeks ([8]; 650-700 mg/m2): 5.98
DE for cyan after 4 weeks ([8]; (2x) 1300 to 1400 mg/m2): 5.11
DE for magenta after 4 weeks ([9]; 650-700 mg/m2): 25.20
DE for magenta after 4 weeks ([9]; (2x) 1300 to 1400 mg/m2): 21.96
DE for yellow after 4 weeks [10]: 5.53
DE for cyan after 4 weeks ([11]; 650-700 mg/m2): 5.26
DE for cyan after 4 weeks ([11]; (2x) 1300 to 1400 mg/m2): 4.62
DE for yellow after 4 weeks [12]: 3.15

Cl.ON(Cc1ccccc1)Cc1ccccc1 [Compound A, N,N-dibenzylhydroxylamine hydrochloride, reference compound]
DE for cyan after 3 months [6]: 11.96
DE for yellow after 3 months [7]: 5.31

CC(C)(O)CON1C(C)(C)CC(N)CC1(C)C [Example 7]
DE for cyan after 4 weeks ([8]; 650-700 mg/m2): 5.85
DE for cyan after 4 weeks ([8]; (2x) 1300 to 1400 mg/m2): 4.95
DE for cyan after 4 weeks ([8]; (3x) 1950 to 2100 mg/m2): 4.34
DE for magenta after 4 weeks ([9]; 650-700 mg/m2): 20.78
DE for magenta after 4 weeks ([9]; (2x) 1300 to 1400 mg/m2): 19.52
DE for magenta after 4 weeks ([9]; (3x) 1950 to 2100 mg/m2): 12.99
DE after 2 weeks [4]: 3.96
DE for cyan after 4 weeks ([11]; 650-700 mg/m2): 4.27
DE for magenta after 4 weeks ([13]; 650-700 mg/m2): 16.62
DE for magenta after 4 weeks ([13]; (2x) 1300 to 1400 mg/m2): 14.14
DE for magenta after 4 weeks ([13]; (3x) 1950 to 2100 mg/m2): 8.60
